Source: the Kinase Knowledgebase extract (Sharma et al. 2016)

These molecules were tested against MAPK14 (human) (UniProt Q16539) (assay: Assesment of MAPK14 Kinase Activity).
Chain of MAPK14 (human) (Q16539 whole entry, looked up): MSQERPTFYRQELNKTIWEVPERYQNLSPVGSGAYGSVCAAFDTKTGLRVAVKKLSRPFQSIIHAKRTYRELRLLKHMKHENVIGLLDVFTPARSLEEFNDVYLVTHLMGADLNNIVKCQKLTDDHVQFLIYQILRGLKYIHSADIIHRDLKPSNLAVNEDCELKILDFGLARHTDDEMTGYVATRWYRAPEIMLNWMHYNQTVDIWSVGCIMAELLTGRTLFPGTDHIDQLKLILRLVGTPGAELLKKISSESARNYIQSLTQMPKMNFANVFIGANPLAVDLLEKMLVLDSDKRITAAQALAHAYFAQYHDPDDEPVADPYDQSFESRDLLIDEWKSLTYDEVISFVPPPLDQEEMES

Row | SMILES | EC50
1 | CC(C)Cn1ncc2cc(Oc3ccc(F)cc3F)c(C(=O)N[C@H]3CCCCNC3=O)cc21 | ≤ 10 µM
2 | CC(C)(F)Cn1ncc2cc(Oc3ccc(F)cc3F)c(C(=O)ON3C(=O)CCC3=O)cc21 | ≤ 10 µM
3 | CC(C)Cn1ncc2cc(Oc3ccc(F)cc3F)c(C(=O)N[C@H]3CCCCN(C)C3=O)cc21 | ≤ 10 µM
4 | CC(C)Cn1ncc2cc(Oc3ccc(F)cc3F)c(C(=O)Nc3ccc[nH]c3=O)cc21 | ≤ 10 µM
5 | CC(C)Cn1ncc2cc(Oc3ccc(F)cc3F)c(C(=O)N[C@H]3CCN(C)C3=O)cc21 | ≤ 10 µM
6 | CC(C)Cn1ncc2cc(Oc3ccc(F)cc3F)c(C(=O)N[C@H]3CCCN(C)C3=O)cc21 | ≤ 10 µM
7 | CC(C)Cn1ncc2cc(Oc3ccc(F)cc3F)c(C(=O)N[C@H]3CCCCN(CCO)C3=O)cc21 | ≤ 10 µM
8 | CC(C)Cn1ncc2cc(Oc3ccc(F)cc3F)c(C(=O)N[C@H]3CCNC3=O)cc21 | ≤ 10 µM
9 | CC(C)Cn1ncc2cc(Oc3ccc(F)cc3F)c(C(=O)N[C@H]3CCN(CCO)C3=O)cc21 | ≤ 10 µM
10 | CC(C)(O)Cn1ncc2cc(Oc3ccc(F)cc3F)c(C(=O)N[C@H]3CCNC3=O)cc21 | ≤ 10 µM
11 | CC(C)(F)Cn1ncc2cc(Oc3ccc(F)cc3F)c(C(=O)N[C@H]3CCCCNC3=O)cc21 | ≤ 10 µM
12 | CC(C)(F)Cn1ncc2cc(Oc3ccc(F)cc3F)c(C(=O)N[C@H]3CCNC3=O)cc21 | ≤ 10 µM
13 | CC(C)Cn1ncc2cc(Oc3ccc(F)cc3F)c(C(=O)N[C@H]3CCCNC3=O)cc21 | ≤ 10 µM
14 | CC(C)Cn1ncc2cc(Oc3ccc(F)cc3F)c(C(=O)N[C@H]3CCCN(CCO)C3=O)cc21 | ≤ 10 µM
15 | CC(C)(F)Cn1ncc2cc(Oc3ccc(F)cc3F)c(C(=O)N[C@H]3CCCNC3=O)cc21 | ≤ 10 µM
